Test results as given in US10544134B2, “4-substituted coumarin derivatives and preparation methods and uses thereof” (SI CHUAN UNIVERSITY, priority 2015, dated 2020).
pIC50: −log10 of the molar value. Where two headings read alike, the source gives them in different places.

Key:
Test in all cases: Tumor cell proliferation inhibitory activity test in vitro (MTT)
[1] = tested on: non-small cell lung cancer cell line NCI-H460; type: cell-based, human; settings: read-out: IC50 of compounds for tumor cells, Activity, H460
Source text: (§1) Human non-small cell lung cancer cell line NCI-H460, human small cell lung cancer cell line NCI-H446, human hepatocellular carcinoma cell strain HepG2, human colon carcinoma cell strain HCT116, human prostate cancer PC-3, human melanoma A375, colon carcinoma cell HCT-8, breast cancer cell MCF-7, ovarian cancer cell A2780s, drug-resistant ovarian cancer cell A2780/T, drug-resistant colon cancer cell HCT-8/T and doxorubicin-resistant breast cancer cell MCF-7/ADR are obtained from American Type Culture Collection (ATCC) and are cultured and preserved by the cell bank of State Key Laboratory of Biotherapy of Sichuan University. Above tumor cells are routinely cultured in DMEM culture medium containing 10% fetal bovine serum, 100 U·mL-1 penicillin and 100 mg·L−1 streptomycin, and in an incubator at 37° C. and with saturated humidity and 5% CO2 concentration.
(§2) Fill diluted cell suspension in the 96-well plate with 1000-10000 cells per well and incubate it in CO2 incubator overnight.
(§3) Replace with new medium containing various concentrations of compounds to be tested for the test group and replace with fresh medium with equal volume for the control group, each group is arranged with 5 parallel wells and incubated in an incubator at 37° C. and with 5% CO2 concentration.
(§4) Discard the supernatant after 72 hours, add 200 μL freshly prepared serum-free medium containing 0.2 mg/mL MTT into each well, continue to incubate at 37° C. for 1-4 hours, then stop incubation, carefully remove the culture supernatant in the wells and add 200 uL DMSO (dimethyl sulfoxide), oscillate with a miniature ultrasonic oscillator for 15-20 minutes to make the crystal fully dissolved and mixed. Determine OD values using a microplate reader at 570 nm with a reference wavelength of 450 nm.
(§5) Draw curves based on the growth inhibition rate for tumor cells of the same sample with different concentrations to get dose-response curve, so as to calculate IC50. Repeat each test for 3 times, measure IC50 (μM) or nanomolor concentration (nM) of compounds in different tumor cells.

melanoma A375 = type: cell-based, human; settings: read-out: IC50 of compounds for tumor cells, Activity, A375
Source text: as §1, §2, §3, §4, §5

[2] = tested on: colon carcinoma cell HCT116; type: cell-based, human; settings: read-out: IC50 of compounds for tumor cells, Activity, HCT116
Source text: as §1, §2, §3, §4, §5

[3] = tested on: hepatocellular carcinoma cell HEPG2; type: cell-based, human; settings: read-out: IC50 of compounds for tumor cells, Activity, HEPG2
Source text: as §1, §2, §3, §4, §5

prostate cancer PC-3 = type: cell-based, human; settings: 72 hours, read-out: IC50 of compounds for tumor cells, Activity, PC-3
Source text: as §1, §2, §3, §4, §5

breast cancer cell MCF-7 = type: cell-based; settings: read-out: IC50 of compounds for tumor cells, Activity, MCF-7
Source text: as §1, §2, §3, §4, §5

[4] = Homo sapiens, NCI-H460, 72 hours
[5] = Homo sapiens, HCT-116, 72 hours

Compound	pIC50 [1, 4]	pIC50 (melanoma A375; Homo sapiens, A-375, 72 hours)	pIC50 [2, 5]	pIC50 ([3]; Homo sapiens, HepG2, 72 hours)	pIC50 (prostate cancer PC-3; Homo sapiens)	pIC50 (breast cancer cell MCF-7; Homo sapiens, MCF7, 72 hours)	pIC50 ([1]; 72 hours)	pIC50 (melanoma A375; 72 hours)	pIC50 ([2]; 72 hours)	pIC50 ([3]; 72 hours)	pIC50 (prostate cancer PC-3)	pIC50 (breast cancer cell MCF-7; 72 hours)
COc1cccc(-c2ccc(-c3cc(=O)oc4ccccc34)s2)c1 [COUM-29, 4-(5-(3-methoxyphenyl)thiophene-2-yl)-coumarin]	< 5.30	< 5.30	< 5.30	< 5.30	< 5.30	< 5.30	–	–	–	–	–	–
O=c1cc(-c2ccc(-c3ccccc3Cl)s2)c2ccccc2o1 [COUM-30, 4-(5-(2-chlorobenzene)thiophene-2-yl)-coumarin]	< 5.30	< 5.30	< 5.30	< 5.30	< 5.30	< 5.30	–	–	–	–	–	–
O=c1cc(-c2ccc(-c3ccc4c(c3)OCO4)s2)c2ccccc2o1 [COUM-31, 4-(5-(3,4-(methylenedioxy)benzene)thiophene-2-yl)-coumarin]	< 5.30	< 5.30	< 5.30	< 5.30	< 5.30	< 5.30	–	–	–	–	–	–
CCOC(=O)c1cccc(-c2ccc(-c3cc(=O)oc4ccccc34)s2)c1 [COUM-32]	< 5.30	< 5.30	< 5.30	< 5.30	< 5.30	< 5.30	–	–	–	–	–	–
COc1cccc(-c2ccc(-c3cc(=O)oc4cc(OC)ccc34)s2)c1 [COUM-33, 4-(5-(3-methoxybenzene)thiophene-2-yl)-7-methoxyl-coumarin]	< 5.30	< 5.30	< 5.30	< 5.30	< 5.30	< 5.30	–	–	–	–	–	–
COc1ccc2c(-c3ccc(-c4ccccc4Cl)s3)cc(=O)oc2c1 [COUM-34, 4-(5-(2-chlorobenzene)thiophene-2-yl)-7-methoxyl-coumarin]	< 5.30	< 5.30	< 5.30	< 5.30	< 5.30	< 5.30	–	–	–	–	–	–
COc1ccc2c(-c3ccc(-c4cccc(Cl)c4)s3)cc(=O)oc2c1 [COUM-35, 4-(5-(3-chlorobenzene)thiophene-2-yl)-7-methoxyl-coumarin]	< 5.30	< 5.30	< 5.30	< 5.30	< 5.30	< 5.30	–	–	–	–	–	–
COc1ccc2c(c1)CCCN2c1cc(=O)oc2ccccc12 [COUM-36, 4-(6-methoxy-3,4-dihydroquinoline-1(2H)-yl) coumarin]	< 5.30	< 5.30	< 5.30	< 5.30	< 5.30	< 5.30	–	–	–	–	–	–
COc1ccc2c(c1)CN(c1cc(=O)oc3ccccc13)CCC2 [COUM-37, 4-(8-methoxy-1,3,4,5-tetrahydro-2H-benzoazepine-2-yl) Coumarin]	5.30 to 7.00	5.30 to 7.00	5.30 to 7.00	5.30 to 7.00	5.30 to 7.00	5.30 to 7.00	–	–	–	–	–	–
COc1ccc2c(c1)CCCN2c1cc(=O)oc2cc(OC)ccc12 [COUM-38, 4-(6-methoxy-3,4-dihydroquinoline-1(211)-yl)-7 methoxycoumarin]	5.30 to 7.00	5.30 to 7.00	5.30 to 7.00	5.30 to 7.00	5.30 to 7.00	5.30 to 7.00	–	–	–	–	–	–
COc1ccc2c(c1)CN(c1cc(=O)oc3cc(OC)ccc13)CCC2 [COUM-39, 4-(8-methoxy-1,3,4,5-tetrahydro-2H-benzoazepine-2-yl)-7-methoxycoumarin]	5.30 to 7.00	5.30 to 7.00	5.30 to 7.00	5.30 to 7.00	5.30 to 7.00	5.30 to 7.00	–	–	–	–	–	–
COc1ccc(N(C)c2cc(=O)oc3cc(OC)ccc23)cc1 [COUM-40, 4-(N-methyl-N-(4-methoxybenzene)-amino)-7-methoxycoumarin]	7.00 to 8.00	7.00 to 8.00	7.00 to 8.00	7.00 to 8.00	7.00 to 8.00	7.00 to 8.00	–	–	–	–	–	–
CCN(CC)c1ccc2c(N(C)c3ccc(OC)cc3)cc(=O)oc2c1 [COUM-41, 4-(N-methyl-N-(4-methoxybenzene)-amino)-7-diethylaminocoumarin]	7.00 to 8.00	7.00 to 8.00	7.00 to 8.00	7.00 to 8.00	7.00 to 8.00	7.00 to 8.00	–	–	–	–	–	–
COc1ccc(N(C)c2cc(=O)oc3ccccc23)cc1 [COUM-43, 4-(N-methyl-N-(4-methoxybenzene)-amino) coumarin]	7.00 to 8.00	7.00 to 8.00	7.00 to 8.00	7.00 to 8.00	7.00 to 8.00	7.00 to 8.00	–	–	–	–	–	–
COc1ccc2c(N(C)c3cc(OC)c(OC)c(OC)c3)cc(=O)oc2c1 [COUM-44]	7.00 to 8.00	7.00 to 8.00	7.00 to 8.00	7.00 to 8.00	7.00 to 8.00	7.00 to 8.00	–	–	–	–	–	–
CCOC(=O)COc1cc(N(C)c2cc(=O)oc3ccccc23)ccc1OC [COUM-45, 4-(N-methyl-N-(4-methoxy-3-(2-ethoxy-2-carbonylethoxy)-benzene)-amino) coumarin]	7.00 to 8.00	7.00 to 8.00	7.00 to 8.00	7.00 to 8.00	7.00 to 8.00	7.00 to 8.00	–	–	–	–	–	–
COc1ccc(N(C)c2cc(=O)oc3ccccc23)cc1OCCN1CCOCC1 [COUM-49, 4-(N-methyl-N-(4-methoxy-3-(2-morpholinoethoxy)-benzene)-amino) Coumarin]	–	–	–	–	–	–	5.30 to 7.00	5.30 to 7.00	5.30 to 7.00	5.30 to 7.00	5.30 to 7.00	5.30 to 7.00
COc1ccc(N(C)c2cc(=O)oc3ccccc23)cc1OCCN1CCSCC1 [COUM-50, 4-(N-methyl-N-(4-methoxy-3-(2-thiomorpholinoethoxy)-benzene)-amino) Coumarin]	–	–	–	–	–	–	7.00 to 8.00	7.00 to 8.00	7.00 to 8.00	7.00 to 8.00	7.00 to 8.00	7.00 to 8.00
COc1ccc(N(C)c2cc(=O)oc3ccccc23)cc1OCCN1CCCCC1 [COUM-51, 4-(N-methyl-N-(4-methoxy-3-(2-piperidinoethoxy)-benzene)-amino) Coumarin]	–	–	–	–	–	–	< 5.30	< 5.30	< 5.30	< 5.30	< 5.30	< 5.30
COc1ccc(N(C)c2cc(=O)oc3ccccc23)cc1OS(=O)(=O)Cc1ccc(C)cc1 [COUM-55, 4-(N-methyl-N-(4-methoxy-3-(4-methylbenzene) methanesulfonate-benzene)-amino) Coumarin]	–	–	–	–	–	–	5.30 to 7.00	5.30 to 7.00	5.30 to 7.00	5.30 to 7.00	5.30 to 7.00	5.30 to 7.00
CCOc1cc(N(C)c2cc(=O)oc3ccccc23)ccc1OC [COUM-58, 4-(N-methyl-N-(4-methoxy-3-ethoxy-benzene)-amino) Coumarin]	–	–	–	–	–	–	< 5.30	< 5.30	< 5.30	< 5.30	< 5.30	< 5.30
COc1ccc(N(C)c2cc(=O)oc3ccccc23)cc1OC(=O)CCCl [COUM-60, 4-(N-methyl-N-(4-methoxy-3-(2-chloroethylcarbonyloxy)-benzene)-amino) Coumarin]	–	–	–	–	–	–	5.30 to 7.00	5.30 to 7.00	5.30 to 7.00	5.30 to 7.00	5.30 to 7.00	5.30 to 7.00
COc1ccc(N(C)c2cc(=O)oc3ccccc23)cc1OC(=O)C(CCSC)NC(=O)OC(C)(C)C (stereo not drawn) [COUM-86, 4-(N-methyl-N-(4-methoxy-3-(Boc-methionine)benzene)amino) Coumarin]	5.30 to 7.00	5.30 to 7.00	5.30 to 7.00	5.30 to 7.00	5.30 to 7.00	5.30 to 7.00	–	–	–	–	–	–
COC(=O)CCCCCCCCCCOc1cc(N(C)c2cc(=O)oc3ccccc23)ccc1OC [COUM-94, 4-(N-methyl-N-(4-methoxy-3-(1-methyl ester-decane-oxy)phenyl)-amino) Coumarin]	< 5.30	< 5.30	< 5.30	< 5.30	< 5.30	< 5.30	–	–	–	–	–	–
